Results: patent publication US20260076372A1, “SPRAYABLE ANTIFUNGAL COMPOSITION FOR USE IN THE FIELD OF AGRICULTURE, AND ASSOCIATED METHOD AND USE” (GAIAGO, priority 2022, published 2026)
≈ marks a conversion by molar mass, not a printed value. Where “and” joins values, the source holds several entries; their conditions need not be identical. Equal values may be shown once.

Key:
Alternaria solani = assay: in vitro 96-well micro-titration test on Alternaria solani spores; type: cell-based; settings: for EC95 (%): A. solani, Table 22, ingredient alone in water
Fusarium graminearum = assay: microbe, parasite or virus in culture; type: cell-based
[1] = system: Septoria tritici (Zymoseptoria tritici); assay: in vitro 96-well micro-titration test on Septoria tritici / Zymoseptoria tritici; type: cell-based
Pythium ultimum = assay: in vitro test on P. ultimum
Description: The evaluations were performed with a 96-well micro-titration test to evaluate the in vitro fungicidal activity of each solution.
Three repetitions (wells) were carried out. The value of the concentration making it possible to inhibit the growth of each pathogen (EC50) to 50% was determined using the optical density measurement.

Plasmopara viticola = assay: in vitro antifungal action of single ingredients on Plasmopara viticola; type: cell-based
Description: In Vitro Results Showing the Syngergistic Action of Yucca Juice with the Other Compounds of the Composition According to the Invention on A. solani, Z. tritici, and Plasmopara viticola,
The following tables show in vitro the synergistic antifungal action between yucca juice and the other compounds of the composition of the invention on various pathogens. The concentrations given are as a mass %. The solutions tested as aqueous solutions.
Mo denotes sodium molybdate, Bo denotes boron ethanolamine.

[2] = Concentration 0.05% mass of the stated aqueous solution

For `Oc1ccc(/C=C/c2cc(O)cc(O)c2)cc1` [resveratrol, 5-[(E)-2-(4-hydroxyphenyl)-ethenyl]benzene-1,3-diol], the “inhibition (%) of A. solani growth” value (Alternaria solani; 0.0064 μg/ml or ppm in water) was 6.20%, the “inhibition (%) of A. solani growth” value (Alternaria solani; 0.032 μg/ml or ppm in water) was 13.60% and the “inhibition (%) of A. solani growth” value (Alternaria solani; 0.16 μg/ml or ppm in water) was 13.70%. The “inhibition (%) of A. solani growth” value (Alternaria solani; 0.8 μg/ml or ppm in water) was 16.10%, the “inhibition (%) of A. solani growth” value (Alternaria solani; 4 μg/ml or ppm in water) was 11.20% and the “inhibition (%) of A. solani growth” value (Alternaria solani; 20 μg/ml or ppm in water) was 28.70%. For the same compound, the “inhibition (%) of A. solani growth” value (Alternaria solani; 100 μg/ml or ppm in water) was 54.7%, the “inhibition of Fusarium graminearum” value (Fusarium graminearum; 0.0064 μg/ml or ppm) was 0.30% and the “inhibition of Fusarium graminearum” value (Fusarium graminearum; 0.032 μg/ml or ppm) was −2.90%. The “inhibition of Fusarium graminearum” value (Fusarium graminearum; 0.16 μg/ml or ppm) was −3.90%, the “inhibition of Fusarium graminearum” value (Fusarium graminearum; 0.8 μg/ml or ppm) was −1.60% and the “inhibition of Fusarium graminearum” value (Fusarium graminearum; 4 μg/ml or ppm) was −3.80%. For the same compound, the “inhibition of Fusarium graminearum” value (Fusarium graminearum; 20 μg/ml or ppm) was 18.20%, the “inhibition of Fusarium graminearum” value (Fusarium graminearum; 100 μg/ml or ppm) was 53.30% and the “inhibition of Fusarium graminearum” value (Fusarium graminearum; 100 μg/ml or ppm, listed as Resveratrol (trans)) was “more than 50%”. For the same compound, the “EC95 (μg/ml or ppm)” value (Fusarium graminearum; Fusarium graminearum, Table 9) was >100 μg/ml or ppm, the EC50 (Fusarium graminearum; Fusarium graminearum, read-out: EC50 (μg/ml or ppm)) was 29.5 µg/mL (≈ 129 µM) and the “% inhibition of pathogen growth (S. tritici)” value (from here on “% inhibition”) ([1]; 0.0064 μg/ml or ppm) was 0.00%. The “% inhibition” value ([1]; 0.032 μg/ml or ppm) was −0.40%, the “% inhibition” value ([1]; 0.16 μg/ml or ppm) was −0.40% and the “% inhibition” value ([1]; 0.8 μg/ml or ppm) was 0.60%. For the same compound, the “% inhibition” value ([1]; 4 μg/ml or ppm) was −2.60%, the “% inhibition” value ([1]; 20 μg/ml or ppm) was −2.00% and the “% inhibition” value ([1]; 100 μg/ml or ppm) was 104.90%. The EC50 ([1]; Zymoseptoria tritici, S. tritici, Table 12, read-out: EC50 (μg/ml or ppm)) was 72 µg/mL (≈ 315 µM), the “concentration showing efficacy against Septoria tritici” value ([1]; in vitro) was 100 ppm and the “inhibition of P. ultimum” value (Pythium ultimum; 0.0064 μg/ml or ppm) was −8.20%. The “inhibition of P. ultimum” value (Pythium ultimum; 0.032 μg/ml or ppm) was −0.30%, the “inhibition of P. ultimum” value (Pythium ultimum; 0.16 μg/ml or ppm) was 0.00% and the “inhibition of P. ultimum” value (Pythium ultimum; 0.8 μg/ml or ppm) was −1.70%. The “inhibition of P. ultimum” value (Pythium ultimum; 4 μg/ml or ppm) was 23.30%, the “inhibition of P. ultimum” value (Pythium ultimum; 20 μg/ml or ppm) was 72.40% and the “inhibition of P. ultimum” value (Pythium ultimum; 100 μg/ml or ppm) was 100% and 101.30%. For the same compound, the EC50 (Pythium ultimum; Globisporangium ultimum, read-out: EC50 (μg/ml or ppm)) was 8.89 µg/mL (≈ 38.9 µM) and the “EC95 (μg/ml or ppm)” value (Pythium ultimum; P. ultimum, Table 14) was 73.85 μg/ml or ppm.
`O=S(=O)([O-])[O-].[Zn+2]` [Zn 7%] was tested, and the “EC95 (%)” value (Alternaria solani) was over 10%, the “inhibition of A. solani, ingredient alone in water” value (“inhibition of A. solani” for short) (Alternaria solani; [2]) was −1.4% and the “inhibition of A. solani” value (Alternaria solani; Concentration 0.50%) was 6.3%. For the same compound, the “inhibition of A. solani” value (Alternaria solani; Concentration 1.00%) was 16.6%, the “inhibition of A. solani” value (Alternaria solani; Concentration 2.00%) was 32.1% and the “inhibition of A. solani” value (Alternaria solani; Concentration 3.00%) was 37.2%. The “inhibition of A. solani” value (Alternaria solani; Concentration 6.00%) was 49.7%, the “inhibition of A. solani” value (Alternaria solani; Concentration 10.00%) was 59.1% and the “inhibition of Z. tritici, ingredient alone in water” value (from here on “inhibition of Z. tritici”) ([1]; Concentration 0.05%) was −4.9%. For the same compound, the “inhibition of Z. tritici” value ([1]; Concentration 0.50%) was 28.1%, the “inhibition of Z. tritici” value ([1]; Concentration 1.00%) was 39.8% and the “inhibition of Z. tritici” value ([1]; Concentration 2.00%) was 44.1%. The “inhibition of Z. tritici” value ([1]; Concentration 3.00%) was 47.4%, the “inhibition of Z. tritici” value ([1]; Concentration 6.00%) was 65.0% and the “inhibition of Z. tritici” value ([1]; Concentration 10.00%) was 77.2%. For the same compound, the “EC95 (%)” value ([1]; Z. tritici, Table 23, ingredient alone in water) was over 10%, the “in vitro activity against Plasmopara viticola, ingredient alone in water” value (shortened to “in vitro activity”) (Plasmopara viticola; Concentration 0.05%) was 7.02% and the “in vitro activity” value (Plasmopara viticola; Concentration 0.50%) was 50.25%. The “in vitro activity” value (Plasmopara viticola; Concentration 1.00%) was 65.51%, the “in vitro activity” value (Plasmopara viticola; Concentration 2.00%) was 99.08% and the “in vitro activity” value (Plasmopara viticola; Concentration 3.00%) was 99.29%. For the same compound, the “in vitro activity” value (Plasmopara viticola; Concentration 6.00%) was 98.93% and the “in vitro activity” value (Plasmopara viticola; Concentration 10.00%) was 99.08%.
boron ethanolamine [Bo 0.49%] was tested, and the “EC95 (%)” value (Alternaria solani) was over 10%, the “inhibition of A. solani” value (Alternaria solani; [2]) was 6.5% and the “inhibition of A. solani” value (Alternaria solani; Concentration 0.50%) was 0.9%. The “inhibition of A. solani” value (Alternaria solani; Concentration 1.00%) was −0.5%, the “inhibition of A. solani” value (Alternaria solani; Concentration 2.00%) was −2.6% and the “inhibition of A. solani” value (Alternaria solani; Concentration 3.00%) was 2.4%. For the same compound, the “inhibition of A. solani” value (Alternaria solani; Concentration 6.00%) was −3.6%, the “inhibition of A. solani” value (Alternaria solani; Concentration 10.00%) was −3.3% and the “inhibition of Z. tritici” value ([1]; Concentration 0.05%) was 8.6%. For the same compound, the “inhibition of Z. tritici” value ([1]; Concentration 0.50%) was 7.6%, the “inhibition of Z. tritici” value ([1]; Concentration 1.00%) was 5.3% and the “inhibition of Z. tritici” value ([1]; Concentration 2.00%) was −1.6%. For the same compound, the “inhibition of Z. tritici” value ([1]; Concentration 3.00%) was −0.8%, the “inhibition of Z. tritici” value ([1]; Concentration 6.00%) was −4.3% and the “inhibition of Z. tritici” value ([1]; Concentration 10.00%) was −1.0%. For the same compound, the “in vitro activity” value (Plasmopara viticola; Concentration 0.05%) was 17.33%, the “in vitro activity” value (Plasmopara viticola; Concentration 0.50%) was 68.80% and the “in vitro activity” value (Plasmopara viticola; Concentration 1.00%) was 84.60%. For the same compound, the “in vitro activity” value (Plasmopara viticola; Concentration 2.00%) was 90.99%, the “in vitro activity” value (Plasmopara viticola; Concentration 3.00%) was 95.55% and the “in vitro activity” value (Plasmopara viticola; Concentration 6.00%) was 98.96%. The “in vitro activity” value (Plasmopara viticola; Concentration 10.00%) was 99.00%.
